From US8168232B2, “Formulations and methods of using nitric oxide mimetics in cancer treatment” (priority 2000, dated 2012) come the findings set out here.

Data set [1] relates to prostate specific antigen (PSA). Briefly: PSA levels in prostate cancer patients on low dose transdermal GTN. In kind it is in vivo, human. How it is done:
Patients with prostatic adenocarcinoma were selected for this study because the progression of this type of cancer correlates well with the plasma levels of prostate-specific antigen (PSA). Thus, the outcome of low dose NO mimetic therapy can be easily assessed by measuring PSA levels. […] Plasma PSA levels were measured via a commercially available immunoassay kit such as Immuno 1 (Bayer Corporation).
Methods: Patients with a previous history of prostatectomy that have experienced biochemical failure as per the ASTRO criteria (three successive rises in PSA), PSA<10 (units), stable with sub-clinical disease were included in the study after signing an informed consent. All patients were placed on treatment with continuous low dose transdermal nitroglycerin (˜0.03 mg/hr, 24 hours a day). Subjects returned to the study centre for monthly PSA measurements. Subjects were withdrawn from the study if there was evidence of disease progression or other intervening medical events.

The subject of data set [2] is soluble guanylyl cyclase (sGC) / cellular cGMP. Kind of data set: cGMP ELISA (sGC activity) in MDA-MB-231 cells. In kind it is cell-based, human. As to the method: The effects of hypoxia and NO-mimetic treatment on sGC levels were determined using Western Blot analysis. To determine sGC activity, cGMP levels were measured. Briefly, cells were extracted over ice in 1 mL of 6% trichloroacetic acid (BDH Laboratory Supplies, Poole, England). The homogenate was then centrifuged at 13,000 g for 10 min. The supernatant fraction was removed and extracted five times with 2 mL of water-saturated diethyl ether (BDH). The cGMP contained in this fraction was subsequently acetylated and quantitated using an enzyme-linked immuno-sorbent assay (ELISA) kit (STI—Signal Transduction Products, San Clemente, Calif.).
To determine the effect of hypoxia on cGMP levels, MDA-MB-231 breast carcinoma cells were incubated in 0.5% O2 for 6 hours in the presence of IBMX (500 μM).
Background: ELISA stands for enzyme-linked immunosorbent assay.

For data set [3], the system named is MDA-MB-231 breast cancer cells. Kind of data set: Colony formation assay for doxorubicin resistance, MDA-MB-231 monolayer. In kind it is cell-based, human. How it is done: The resistance of MDA-MB-231 breast cancer cells to doxorubicin was determined following culture in 20% or 1% oxygen by counting the number of colonies formed. MDA-MB-231 cells were incubated in 1% O2 or 20% O2 for 24 hours. […] The cells were washed and then plated onto 35 mm plates at different dilutions. The cells were incubated for an additional 1-2 weeks in order to allow cell colonies to grow. At the end of the incubation period, the cells were fixed with Carnoy's fixative, stained with Crystal violet, rinsed and allowed to air dry. Colonies were counted visually. The surviving cells under each condition was determined by counting the number of colonies and was expressed as a fraction of the number of colonies that survived without doxorubicin exposure.
Using human MDA-MB-231 breast carcinoma cells in clonogenic assays, survival was determined following doxorubicin exposure and NO mimetic administration to both monolayer and spheroid cultures. […] However, these NO mimetics effectively attenuated the resistance to 200 μM doxorubicin associated with 3D culture by 90% and 30% respectively.

Data set [4] concerns metalloproteinase (gelatinase). Briefly: Zymography of metalloproteinase (gelatinase) secretion by breast cancer cells. The note with it: 10^−11 M GTN, 10^−12 M SNP. Format: cell-based, human. How it is done:
The cells were cultured using a serum-free medium (EX-CELL 300). Following incubation, the medium was extracted and centrifuged at 5,000 RPM for 5 minutes. The supernatant was subsequently collected and stored at −80° C. until further use. SDS-polyacrylamide gels were prepared in accordance with well-known procedures. For the analysis of metalloproteinase secretion, the gel contained 0.1% w/v gelatin, and for the analysis of plasminogen activator secretion, the gel was supplemented with 0.1% w/v casein as well as plasminogen (50 μg/mL). The serum-free conditioned medium was then combined with a nonreducing sample loading buffer (0.5 M Tris, 10% SDS, 1% Bromophenol Blue in 2 mL glycerol) in a ratio of 4:1 and was not boiled. Following electrophoresis, the gels underwent two 15 minute washes with 2.5% Triton X-100. This step removed the SDS. After the washes with H2O, the gels were incubated overnight at 37° C. in a solution containing Tris-HCl (pH 7.0) and CaCl2 (5 mM). The gels were stained with 0.4% Coomassie Brilliant Blue R-250 in 40% methanol/10% glacial acetic acid/50% distilled water for approximately 1 hour, and then destained for about 2 hours in 30% methanol/10% glacial acetic acid/60% distilled water. […]

Data set [5] deals with HIF-1. Briefly: HIF-1 accumulation and transactivating activity. In kind it is cell-based. The following applies: high concentrations (0.1-1 mM); preliminary studies. An excerpt: The promotor region of uPAR contains binding sites for transcription factors such as activator protein-1 (AP-1), Sp-1/3 and nuclear factor κB (NFκB).
The test system of data set [6] is uPAR mRNA. Kind of data set: Northern blot analysis of uPAR mRNA in MDA-MB-231 breast carcinoma cells. Format: cell-based, human.

For `O=[N+]([O-])OCC(CO[N+](=O)[O-])O[N+](=O)[O-]` [GTN, glyceryl trinitrate], in data set [1] (GTN 0.033 mg/hour transdermal patches, recurrent prostatic adenocarcinoma, two patients, within two months), the “plasma PSA levels” value was “sharp decline”. For the same molecule, the “PSA velocity, first two treatment episodes” value in data set [1] (one patient, prostate intact, on anti-androgen therapy, GTN 0.03 mg/hour, about one month each) was “reduction of PSA velocity”. Moreover, in data set [1] (one patient, prostate intact, GTN 0.03 mg/hour, about one month), the “PSA levels, third treatment episode” value is “decrease in PSA levels”. In addition, the “time to PSA decrease with combined radiation therapy” value in data set [1] (one patient, chronic transdermal GTN 0.03 mg/hour, radiation alone expected average twelve months) is on record as “within three months”. In addition, the “mean PSA velocity on therapy” value in data set [1] (transdermal ~0.03 mg/hr 24 hours a day, 5 or more months of therapy, decreased from 14%/month, post-prostatectomy biochemical failure) came to 5.4 %/month. The “drug related adverse events” value in data set [1] (transdermal ~0.03 mg/hr, 24 hours a day) is given as “No patients experienced drug related adverse events”. Further, in data set [2] (0.5% O2, 2 hours, GTN (10^−10 M, 10^−6 M)), the “effect on hypoxic reduction of sGC activity (cGMP ELISA)” value was “significantly prevented”. Also, the “effect of hypoxia on accumulated cGMP levels” value in data set [2] (GTN 1 μM co-incubation, 0.5% O2 6 hours, IBMX 500 μM) was “prevented”. The “effect on hypoxic reduction in cGMP levels” value in data set [2] (GTN (1 mM) as printed, 6 hrs 0.5% O2, IBMX) is reported as “completely prevented”. Further, the “doxorubicin survival rates vs untreated hypoxic cells” value in data set [3] (hypoxic cells, 10^−6 M and 10^−10 M GTN) is on record as “lower doxorubicin survival rates”. Besides, the “attenuation of hypoxia-induced resistance to doxorubicin” value in data set [3] (monolayer cells in 1% O2, GTN 1 μM) was 50%. The “gelatinases secreted vs untreated hypoxic cells” value in data set [4] is “decrease in gelatinases secreted”. Moreover, in data set [5], the “HIF-1 accumulation and transactivating activity” value was “inhibit HIF-1 accumulation and transactivating activity”. The “effect of DFO on uPAR mRNA expression” value in data set [6] (1 μM of GTN) is “not prevented”. The “uPAR mRNA levels vs untreated hypoxic cells” value in data set [6] (1% O2, SNP 10^−12 M, GTN 10^−11 M and 10^−10 M) is on record as “significantly reduced”. In data set [6] (GTN 1 μM), the “hypoxic upregulation of uPAR mRNA expression” value is recorded as “prevented”. Also, the “effect of hypoxia on uPAR mRNA when ODQ also present” value in data set [6] (GTN 1 μM with ODQ 0.5 μM) was “unable to block”. The “inhibition of DFO (100 μM)-induced upregulation of uPAR” value in data set [6] (GTN (10^−10 M, 10^−6 M)) is “could not be inhibited”. Besides, the “hypoxia-mediated increase in uPAR mRNA levels” value in data set [6] (GTN (a pM) as printed) was “inhibited”. Also, in data set [6] (combination of L-NMMA (0.5 mM) and GTN (0.1 nM), 20% O2), the “uPAR transcript levels vs 20% O2 alone” value is reported as “no significant increase”.
